Measurements from patent US20020028474A1, “Composition for immunohistochemical staining” (DAIICHI PURE CHEMICAL CO., LTD., priority 1996, published 2002).
Counter-ions that a name gives are not always drawn. Blank lines part the entries; values can stand above or below the compound they belong to.

Key:
Format in all cases: physicochemical
[1] = Fluorescence observed by infrared ray microscope on cotton gauze thread, with or without sodium distearoylphosphatidate/octyl glucoside solution (Example 1); parameters: key: +++: Definitely bright; ++: Bright.; +: Observable; ±: Slightly observable; details: for Fluorescence intensity, No addition group: no DSPA/OG solution; for Fluorescence intensity, Addition group: sodium distearoylphosphatidate + octyl glucoside solution added
Protocol: Octyl glucoside (Dojindo Laboratories, 880 mg) was carefully added to phosphate buffered saline (10 ml, pH 7.4) and dissolved with stirring on a water bath at 40° C. Sodium distearoylphosphatidate (148.8 mg) was added to the resulting solution and dissolved with stirring over a water bath at 60° C., and then the solution was added with phosphate buffered saline up to a final volume of 20 ml. The solution was returned to room temperature and stored as frozen aliquots of 1 ml volume before use. The final concentrations of sodium distearoylphosphatidate and octyl glucoside in the solution were 10 mM and 150 mM, respectively.
The above diagnosis marker (54 μg) in the lyophilized state was added with 10% (v/v) dimethyl sulfoxide (DMSO)/phosphate buffered saline (20 μl, pH 7.4) and dissolved. The above solution of sodium distearoylphosphatidate and octyl glucoside (5 μl) was added to 5 μl of the resulting solution, which was warmed beforehand, and mixed by repeating careful suction and ejection using a micropipette to obtain a composition of the present invention in the form of an aqueous solution. By using an indocyanine green (ICG) solution, ICC-sulfo-OSu solution, and water (control) instead of the solution of the diagnosis marker, aqueous compositions were prepared in the same manner as described above.
BHSM-IR (Olympus Optical) was used as an infrared ray microscope that allows observation in visible light to near infrared light region. The microscope was equipped with an excitation light transmitting filter that transmits lights of 710-790 nm (Asahi Bunko) under the sample, and with an excitation light cutting filter that transmits lights of 810-920 nm (Asahi Bunko) over the sample. KP-MI from Hitachi Electronic Engineering was used as a CCD, and fluorescence caught by the CCD was taken into an image collecting apparatus (EVIP-230, Olympus Optical), and recorded in an image recording apparatus (S321S, Olympus Optical) via an amplification system (Olympus Optical).
5 μl of each of the samples was dropped onto a cotton gauze thread (1 cm) placed on an object glass, and images were observed under irradiation by ordinary light and infrared light using the above optical system. […] The recorded images were converted into final images through an image processing comprising the steps of integration of an original image, integration of a background image, formation of a subtraction image, formation of a filtering image, and contrast enhancement by using the above-mentioned apparatus. […] In the table, all of the concentrations indicate those calculated based on ICG concentration. […] In the figure, (a) represents the result obtained under irradiation of ordinary light, and (b) represents the result obtained under irradiation of infrared ray.

[2] = Fluorescence intensity enhancing effect versus octyl glucoside concentration (Example 3); details: for Fluorescence wavelength / Fluorescence intensity: excitation 768 nm; for Fluorescence intensity: labeled anti-mucin antibody 83.3 nM, 50° C.; for Fluorescence intensity (standard): 1 ppm, λex=251 nm, λem=450 nm
Protocol: The final antibody concentration in the diagnostic markers was 83.3 nM, and the IOG-sulfo-OSu concentration was 1.33 μM. Fluorescence spectra of the samples were measured in the same manner as in Example 2. The slit width was 2 nm for each of excitation light and fluorescence.

[3] = Fluorescence spectrum of compositions of ICG-sulfo-OSu-labeled mouse anti-mucin antibody with fluorescence intensity enhancing agents (Example 2); details: 1 ppm, λex=255 nm, λem=451 nm
Protocol: The above diagnostic marker in the form of lyophilized product obtained from the mouse anti-mucin antibody (100 μg) was added with 4.0 ml of phosphate buffered saline and dissolved. 1.5 ml of the resulting solution was added with 1.5 ml of a solution of the fluorescence intensity enhancing agent of the present invention, and then the mixture was warmed over a water bath at 50° C. to prepare a final sample. As a control, a solution was prepared in the same manner by adding 1.5 ml of phosphate buffered saline. The final antibody concentration in the diagnostic marker was 83.3 nM, and the ICG-sulfo-OSu concentration was 1.33 μM. Fluorescence spectrum of each sample was measured by using a Hitachi spectrophotometer 650-40. The slit width was 5 nm for each of excitation light and fluorescence.

[4] = before the spectrum measurement

Fluorescence intensity, No addition group ([1]; 1 mg/ml in terms of ICG, fluorescence at 800 nm or more): ++
Fluorescence intensity, Addition group ([1]; 1 mg/ml in terms of ICG): ++
Structure (SMILES): CC1(C)C(/C=C/C=C/C=C/C=C2\N(CCCCS(=O)(=O)O)c3ccc4ccccc4c3C2(C)C)=[N+](CCCCS(=O)(=O)[O-])c2ccc3ccccc3c21 [ICC, indocyanine green]

Fluorescence intensity, No addition group ([1]; 10 μg/ml in terms of ICG): +
Fluorescence intensity, Addition group ([1]; 10 μg/ml in terms of ICG): +
Fluorescence intensity, No addition group ([1]; 100 μg/ml in terms of ICG): ±
Fluorescence intensity, Addition group ([1]; 100 μg/ml in terms of ICG): ++
Structure (SMILES): CC1(C)C(/C=C/C=C/C=C/C=C2\N(CCCCS(=O)(=O)[O-])c3ccc4ccccc4c3C2(C)C)=[N+](CCCCCC(=O)ON2C(=O)CC(S(=O)(=O)[O-])C2=O)c2ccc3ccccc3c21.[Na+] (stereo not drawn) [ICG-sulfo-OSu, indocyanine green-N-hydroxysulfosuccinimide ester]

Fluorescence wavelength ([2]; OG 1.0 mM): 806 nm
Fluorescence intensity ([2]; OG 1.0 mM): 0.150
Fluorescence wavelength ([2]; OG 1.50 mM): 821 nm
Fluorescence intensity ([2]; OG 1.50 mM): 0.588
Fluorescence wavelength ([2]; OG 5.0 mM): 804 nm
Fluorescence intensity ([2]; OG 5.0 mM): 0.150
Fluorescence wavelength ([2]; OG 10.0 mM): 809 nm
Fluorescence intensity ([2]; OG 10.0 mM): 0.189
Fluorescence wavelength ([2]; OG 20.0 mM): 817 nm
Fluorescence intensity ([2]; OG 20.0 mM): 0.436
Fluorescence wavelength ([2]; OG 37.5 mM): 817 nm
Fluorescence intensity ([2]; OG 37.5 mM): 0.520
Fluorescence wavelength ([2]; OG 50.0 mM): 820 nm
Fluorescence intensity ([2]; OG 50.0 mM): 0.515
Fluorescence wavelength ([2]; OG 75.0 mM): 816 nm
Fluorescence intensity ([2]; OG 75.0 mM): 0.525
Fluorescence wavelength ([2]; OG 100 mM): 816 nm
Fluorescence intensity ([2]; OG 100 mM): 0.600
Structure (SMILES): CCCCCCCCO[C@@H]1O[C@H](CO)[C@@H](O)[C@H](O)[C@H]1O [OG, octyl glucoside]
shift of fluorescence wavelength to a longer wavelength region versus octyl glucoside concentration ([2]; ICG-sulfo-OSu labeled anti-mucin antibody): sharp increases were observed at concentrations near the critical micelle concentration
dependence of fluorescence intensity on octyl glucoside concentration ([2]; ICG-sulfo-OSu labeled anti-mucin antibody, critical micelle concentration 25 mM): Sharp increases of fluorescence intensity were observed at concentrations near the critical micelle concentration

Fluorescence intensity (standard) ([3]; after the spectrum measurement): 69.5
Fluorescence intensity (standard) [3, 4]: 68.0
Fluorescence intensity (standard) ([2]; after the spectrum measurement): 96.0
Fluorescence intensity (standard) [2, 4]: 100.0
Structure (SMILES): C=C[C@H]1C[N@@]2CC[C@H]1C[C@H]2[C@H](O)c1ccnc2ccc(OC)cc12 [quinine sulfate, reference compound]
